# Experimental data taken from ChEMBL document CHEMBL5260858, “Targeting mycobacterial membranes and membrane proteins: Progress and limitations” (Bioorg Med Chem, 2023).
# Columns and labels:
# [1] = tested on: Mycobacterium tuberculosis; experiment: Antitubercular activity against Mycobacterium tuberculosis Erdman assessed as bacterial growth inhibition incubated for 1 week by microplate alamar blue assay; format: functional, organism-based; settings: 168 h
# [2] = tested on: Mycobacterium tuberculosis; experiment: Antitubercular activity against Mycobacterium tuberculosis H37Rv assessed as extracellular bacterial growth inhibition; format: functional
# [3] = tested on: Mycobacterium tuberculosis; experiment: Antitubercular activity against Mycobacterium tuberculosis H37Rv assessed as intracellular bacterial growth inhibition; format: functional
# [4] = tested on: Mycobacterium tuberculosis; experiment: Antitubercular activity against Mycobacterium tuberculosis H37Rv assessed as bacterial growth inhibition incubated for 6 days by resazurin reduction microplate assay; format: functional; settings: 144 h, time 6 day
# [5] = tested on: Mycobacterium tuberculosis; experiment: Antitubercular activity against Mycobacterium tuberculosis H37Rv infected in human HepG2 cells assessed as bacterial growth inhibition incubated for 4 weeks by resazurin reduction microtiter assay; format: functional, organism-based; settings: HepG2, 672 h
# [6] = tested on: Mycobacterium tuberculosis; experiment: Antitubercular activity against Mycobacterium tuberculosis H37Rv infected in BALB/c mouse assessed as reduction in bacterial load at 200 mg/kg, po for 10 days by CFU analysis; format: functional; settings: time 10 day
# [7] = tested on: Mycobacterium tuberculosis; experiment: Antimycobacterial activity against Mycobacterium tuberculosis H37Rv assessed as bacterial growth inhibition incubated for 7 days by microplate alamar blue assay; format: functional; settings: 168 h, time 7 day
# [8] = tested on: Mycobacterium tuberculosis; experiment: Antimycobacterial activity against Mycobacterium tuberculosis Erdman assessed as bacterial growth inhibition incubated for 7 days by microplate alamar blue assay; format: functional; settings: 168 h, time 7 day
# Mycobacterium avium = experiment: Antimycobacterial activity against Mycobacterium avium assessed as bacterial growth inhibition incubated for 7 days by microplate alamar blue assay; format: functional; settings: 168 h, time 7 day
# [9] = tested on: Mycobacterium tuberculosis; experiment: In vivo antimycobacterial activity against Mycobacterium tuberculosis Erdman infected in Balb/c mouse assessed as reduction in log10 CFU in lungs at 15 mg/kg,po for 4 weeks […]; format: functional
# [10] = tested on: Mycobacterium tuberculosis; experiment: Antitubercular activity against Mycobacterium tuberculosis H37Rv assessed as bacterial growth inhibition incubated for 14 days by agar plate method; format: functional; settings: 336 h, time 14 day
# [11] = tested on: Mycobacterium tuberculosis; experiment: Antitubercular activity against Mycobacterium tuberculosis Erdman assessed as bacterial growth inhibition incubated for 14 days by agar plate method; format: functional; settings: 336 h, time 14 day
# Mycobacterium marinum = experiment: Antitubercular activity against Mycobacterium marinum strain M assessed as bacterial growth inhibition incubated for 14 days by agar plate method; format: functional; settings: 336 h, time 14 day
# [12] = tested on: Mycobacterium tuberculosis; experiment: Antitubercular activity against Mycobacterium tuberculosis H37Rv assessed as bacterial growth inhibition incubated for 7 days by resazurin reduction microplate assay; format: functional; settings: 168 h, time 7 day
# [13] = tested on: Mycobacterium tuberculosis; experiment: Antitubercular activity against Mycobacterium tuberculosis H37Rv infected in BALB/c mouse assessed as reduction in bacterial load at 150 mg/kg, po for 10 days by CFU analysis; format: functional; settings: time 10 day
# [14] = tested on: Mycobacterium tuberculosis; experiment: In vivo antimycobacterial activity against Mycobacterium tuberculosis H37Rv infected in BALB/c mouse assessed as reduction in bacterial load at 200 mg/kg, po for 2 weeks; format: functional
# [15] = tested on: Mycobacterium tuberculosis; experiment: In vivo antimycobacterial activity against Mycobacterium tuberculosis H37Rv infected in BALB/c mouse assessed as reduction in bacterial load at 300 mg/kg, po for 5 days; format: functional; settings: time 5 day
# [16] = tested on: Mycobacterium tuberculosis; experiment: Antitubercular activity against Mycobacterium tuberculosis H37Rv assessed as bacterial growth inhibition incubated for 7 days by microplate alamar blue assay; format: functional; settings: 168 h, time 7 day
# [17] = tested on: Mycobacterium tuberculosis; experiment: Antitubercular activity against Mycobacterium tuberculosis CDC1551 assessed as bacterial growth inhibition for 6 days by spectroscopic analysis; format: functional, organism-based; settings: CDC1551, 144 h
# [18] = tested on: Mycobacterium tuberculosis; experiment: Antitubercular activity against Mycobacterium tuberculosis CDC1551 infected in mouse bone marrow derived macrophage assessed as bacterial growth inhibition for 2 days by spectroscopic analysis; format: functional; settings: CDC1551, 48 h, time 2 day
# [19] = tested on: Mycobacterium tuberculosis; experiment: Antitubercular activity against Mycobacterium tuberculosis H37Rv assessed as bacterial growth inhibition in presence of clavulanate by checkerboard assay; format: functional
# [20] = tested on: Mycobacterium tuberculosis; experiment: Antitubercular activity against Mycobacterium tuberculosis H37Rv assessed as bacterial growth inhibition by checkerboard assay; format: functional
# [21] = tested on: Mycobacterium tuberculosis; experiment: Antitubercular activity against Mycobacterium tuberculosis H37Rv assessed as bacterial growth inhibition by REMA analysis; format: functional
# [22] = tested on: Mycobacterium tuberculosis; experiment: In vivo antimycobacterial activity against Mycobacterium tuberculosis H37Rv infected in mouse assessed as reduction in log10 CFU at 1 to 2 times MIC and measured after 10 days; format: functional; settings: time 10 day
# [23] = tested on: Mycobacterium tuberculosis; experiment: Antimycobacterial activity against Mycobacterium tuberculosis H37Rv infected in THP-1 cells assessed as reduction in log10 CFU at MIC and measured after 2 to 7 days; format: functional; settings: time 2-7 day
# [24] = tested on: Mycobacteroides abscessus; experiment: Antitubercular activity against Mycobacterium abscessus CIP104536 assessed as bacterial growth inhibition incubated 3 to 5 days by resazurin based broth microdilution method; format: functional; settings: time 3-5 day
# [25] = tested on: Mycobacteroides abscessus; experiment: Antitubercular activity against Mycobacterium abscessus 3321 assessed as bacterial growth inhibition incubated 3 to 5 days by resazurin based broth microdilution method; format: functional; settings: time 3-5 day
# [26] = tested on: Mycobacteroides abscessus; experiment: Antitubercular activity against Mycobacterium abscessus 2069 assessed as bacterial growth inhibition incubated 3 to 5 days by resazurin based broth microdilution method; format: functional; settings: time 3-5 day
# [27] = tested on: Mycobacteroides abscessus; experiment: Antitubercular activity against Mycobacterium abscessus 3022 assessed as bacterial growth inhibition incubated 3 to 5 days by resazurin based broth microdilution method; format: functional; settings: time 3-5 day
# [28] = tested on: Mycobacteroides abscessus; experiment: Antitubercular activity against Mycobacterium abscessus 1298 assessed as bacterial growth inhibition incubated 3 to 5 days by resazurin based broth microdilution method; format: functional; settings: time 3-5 day
# [29] = tested on: Mycobacteroides abscessus; experiment: Antitubercular activity against Mycobacterium abscessus 2587 assessed as bacterial growth inhibition incubated 3 to 5 days by resazurin based broth microdilution method; format: functional; settings: time 3-5 day
# [30] = tested on: Mycobacteroides abscessus; experiment: Antitubercular activity against Mycobacterium abscessus CF assessed as bacterial growth inhibition incubated 3 to 5 days by resazurin based broth microdilution method; format: functional; settings: time 3-5 day
# [31] = tested on: Mycobacteroides abscessus; experiment: Antitubercular activity against Mycobacterium abscessus 2524 assessed as bacterial growth inhibition incubated 3 to 5 days by resazurin based broth microdilution method; format: functional; settings: time 3-5 day
# [32] = tested on: Mycobacteroides abscessus; experiment: Antitubercular activity against Mycobacterium abscessus 2648 assessed as bacterial growth inhibition incubated 3 to 5 days by resazurin based broth microdilution method; format: functional; settings: time 3-5 day
# [33] = tested on: Mycobacteroides abscessus; experiment: Antitubercular activity against Mycobacterium abscessus 5175 assessed as bacterial growth inhibition incubated 3 to 5 days by resazurin based broth microdilution method; format: functional; settings: time 3-5 day
structure (smiles),measurement,setting,value
CCCCNc1nc(CC)nc2sc(C)cc12,IC50,[1],2.7 µM
COc1ccc(OCCNC(=O)c2cc([N+](=O)[O-])cc([N+](=O)[O-])c2)cc1,MIC,[2],0.2 µM
same,MIC,[3],0.2 µM
O=C(/C=C/c1cccs1)N1CCN(Cc2ccc3c(c2)OCO3)CC1,MIC,[4],0.05 mg/L
same,IC50,[5],0.1 mg/L
same,Activity,[6],0.4 log10CFU
O=[N+]([O-])c1cc(C(F)(F)F)cc2c(=S)nc(N3CCC4(CC3)OCCO4)sc12,MIC,[7],0.02 mg/L
same,MIC,[8],32 mg/L
same,MIC,Mycobacterium avium,< 0.05 mg/L
same,Activity,[9],3.4 log10CFU
Cc1cc2oc(=O)cc(-c3cccc(N)c3)c2c(C)c1-c1ccc(CN2CCOCC2)cc1,MIC,[10],0.24 µM
same,MIC,[11],0.4 µM
same,MIC,Mycobacterium marinum,0.83 µM
CCSc1nc(NC)c2ccc(F)c(F)c2n1,MIC,[12],0.02 mg/L
same,Activity,[13],0.5 log10CFU
CNC(=O)c1c(-c2ccc(O)cc2)oc2ccc(O)c(CN3CCCCC3)c12,Activity,[14],6.8 log10CFU
same,Activity,[15],7 log10CFU
O=c1cc(-c2ccc(O)cc2)oc2ccc(O)c(CN3CCC3)c12,MIC,[16],0.45 mg/L
O=C(NCCc1ccc(Cl)cc1)C1(c2cccs2)CCOCC1,EC50,[17],6.4 µM
same,MIC99,[18],19.3 µM
CO[C@H]1CCC[C@H]2C1=C(C(=O)OC(C)OC(=O)OC1CCCCC1)N1C(=O)[C@H]([C@@H](C)O)[C@@H]21 (stereo not given in full) [SANFETRINEM CILEXETIL],MIC,[19],5 µM
same,MIC,[20],7.5 µM
COc1ncnc(Cn2cnc3c(C(=O)NCCF)cccc32)c1C,MIC,[21],1.56 µM
same,Activity,[22],>3 log10CFU
same,Activity,[23],1 log10CFU
Cc1ccccc1CN1CCC(O)(c2ccc(Cl)c(C(F)(F)F)c2)CC1,MIC,[24],0.125 mg/L
same,MIC,[25],0.125 mg/L
same,MIC,[26],0.125 mg/L
same,MIC,[27],0.125 mg/L
same,MIC,[28],0.125 mg/L
same,MIC,[29],0.125 mg/L
same,MIC,[30],0.125 mg/L
same,MIC,[31],0.125 mg/L
same,MIC,[32],0.125 mg/L
same,MIC,[33],0.125 mg/L
